Assay results reported in the supplement of paper PMC11208160.

Assay: recombinant barcode read abundance after kanamycin selection (control-corrected) (log10(CPM+1)); higher = more efficient recombination; sequences stand for … in AGTGCAGAGAAAATCGGCCAGTTTTCTCTGCCTGCAGTCCGCATGCCGT…ATTTATGCAGCGGACTGCCTTTCTCCCAAAGTGATAAACCGGACAGTATCATGGACCGGTTTTCCCGGTAATCCGTATTTGCAAGGTTGGTTTCACT; site = the 11-nt target
Method in brief: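 Oligos holding a promoter, target, barcode and the J23119-driven first 104 bases of the bridge RNA were Gibson-cloned into a vector that supplied the other 73 bp plus a T7-inducible recombinase. This library was co-electroporated with a donor plasmid into E. coli. Two replicates went on chloramphenicol/ampicillin LB agar (control) and two on chloramphenicol/ampicillin/kanamycin with 0.1 mM IPTG. Recombination efficiency is read from averaged, control-corrected barcode counts per million at recombinant junctions, reported as log10(CPM+1).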

CATATTACATGGGTTCTAACCTGTTGCCTTG [CATATTACTAG_LTGcore_CA_RTGcore_CA] (site CATATTACTAG) (LTG core: CA, RTG core: CA)
recombinant barcode read abundance (log10): 0.00594

CATATTACTTGGGTTCTAACCTGTTGCCTAG [CATATTACTAG_LTGcore_CT_RTGcore_CT] (site CATATTACTAG) (LTG core: CT, RTG core: CT)
recombinant barcode read abundance (log10): 0.22

CATATTACTTGGGTTCTAACCTGTTGCCTAT [CATATTACTAG_LTGcore_CT_RTGcore_AT] (site CATATTACTAG) (LTG core: CT, RTG core: AT)
recombinant barcode read abundance (log10): 0.0875

CATATTACTTGGGTTCTAACCTGTTGCCTGC [CATATTACTAG_LTGcore_CT_RTGcore_GC] (site CATATTACTAG) (LTG core: CT, RTG core: GC)
recombinant barcode read abundance (log10): 0.0956

CATATTACTTGGGTTCTAACCTGTTGCCTGT [CATATTACTAG_LTGcore_CT_RTGcore_AC] (site CATATTACTAG) (LTG core: CT, RTG core: AC)
recombinant barcode read abundance (log10): 0.00796

CATATTAGCTGGGTTCTAACCTGTTGCCTGC [CATATTACTAG_LTGcore_GC_RTGcore_GC] (site CATATTACTAG) (LTG core: GC, RTG core: GC)
recombinant barcode read abundance (log10): 0

CATATTAGTTGGGTTCTAACCTGTTGCCTAC [CATATTACTAG_LTGcore_GT_RTGcore_GT] (site CATATTACTAG) (LTG core: GT, RTG core: GT)
recombinant barcode read abundance (log10): 0.1

CATATTAGTTGGGTTCTAACCTGTTGCCTAG [CATATTACTAG_LTGcore_GT_RTGcore_CT] (site CATATTACTAG) (LTG core: GT, RTG core: CT)
recombinant barcode read abundance (log10): 0.209

CATATTATCTGGGTTCTAACCTGTTGCCTGA [CATATTACTAG_LTGcore_TC_RTGcore_TC] (site CATATTACTAG) (LTG core: TC, RTG core: TC)
recombinant barcode read abundance (log10): 0.0468

CATATTATGTGGGTTCTAACCTGTTGCCTCA [CATATTACTAG_LTGcore_TG_RTGcore_TG] (site CATATTACTAG) (LTG core: TG, RTG core: TG)
recombinant barcode read abundance (log10): 0.0228

CGAGCCCCATGGGTTCTAACCTGTTGCTGAG [CGAGCCCCTCA_LTGcore_CA_RTGcore_CT] (site CGAGCCCCTCA) (LTG core: CA, RTG core: CT)
recombinant barcode read abundance (log10): 1.27

CGAGCCCCATGGGTTCTAACCTGTTGCTGTG [CGAGCCCCTCA_LTGcore_CA_RTGcore_CA] (site CGAGCCCCTCA) (LTG core: CA, RTG core: CA)
recombinant barcode read abundance (log10): 0.111

CGAGCCCCGTGGGTTCTAACCTGTTGCTGCG [CGAGCCCCTCA_LTGcore_CG_RTGcore_CG] (site CGAGCCCCTCA) (LTG core: CG, RTG core: CG)
recombinant barcode read abundance (log10): 0.493

CGAGCCCCTTGGGTTCTAACCTGTTGCTGAA [CGAGCCCCTCA_LTGcore_CT_RTGcore_TT] (site CGAGCCCCTCA) (LTG core: CT, RTG core: TT)
recombinant barcode read abundance (log10): 0.691

CGAGCCCCTTGGGTTCTAACCTGTTGCTGCC [CGAGCCCCTCA_LTGcore_CT_RTGcore_GG] (site CGAGCCCCTCA) (LTG core: CT, RTG core: GG)
recombinant barcode read abundance (log10): 0.235

CGAGCCCCTTGGGTTCTAACCTGTTGCTGCG [CGAGCCCCTCA_LTGcore_CT_RTGcore_CG] (site CGAGCCCCTCA) (LTG core: CT, RTG core: CG)
recombinant barcode read abundance (log10): 0.339

CGAGCCCCTTGGGTTCTAACCTGTTGCTGGA [CGAGCCCCTCA_LTGcore_CT_RTGcore_TC] (site CGAGCCCCTCA) (LTG core: CT, RTG core: TC)
recombinant barcode read abundance (log10): 0.994

CGAGCCCCTTGGGTTCTAACCTGTTGCTGTG [CGAGCCCCTCA_LTGcore_CT_RTGcore_CA] (site CGAGCCCCTCA) (LTG core: CT, RTG core: CA)
recombinant barcode read abundance (log10): 0.176

CGAGCCCGGTGGGTTCTAACCTGTTGCTGAG [CGAGCCCCTCA_LTGcore_GG_RTGcore_CT] (site CGAGCCCCTCA) (LTG core: GG, RTG core: CT)
recombinant barcode read abundance (log10): 0.223

CGAGCCCGTTGGGTTCTAACCTGTTGCTGAC [CGAGCCCCTCA_LTGcore_GT_RTGcore_GT] (site CGAGCCCCTCA) (LTG core: GT, RTG core: GT)
recombinant barcode read abundance (log10): 0.156

CGAGCCCTATGGGTTCTAACCTGTTGCTGTA [CGAGCCCCTCA_LTGcore_TA_RTGcore_TA] (site CGAGCCCCTCA) (LTG core: TA, RTG core: TA)
recombinant barcode read abundance (log10): 0.083

CGAGCCCTCTGGGTTCTAACCTGTTGCTGAG [CGAGCCCCTCA_LTGcore_TC_RTGcore_CT] (site CGAGCCCCTCA) (LTG core: TC, RTG core: CT)
recombinant barcode read abundance (log10): 0.0668

CGAGCCCTGTGGGTTCTAACCTGTTGCTGAG [CGAGCCCCTCA_LTGcore_TG_RTGcore_CT] (site CGAGCCCCTCA) (LTG core: TG, RTG core: CT)
recombinant barcode read abundance (log10): 0.134

CGAGCCCTTTGGGTTCTAACCTGTTGCTGAA [CGAGCCCCTCA_LTGcore_TT_RTGcore_TT] (site CGAGCCCCTCA) (LTG core: TT, RTG core: TT)
recombinant barcode read abundance (log10): 0.0246

CGCGCCCAATGGGTTCTAACCTGTTGCGGAG [CGCGCCCCTCC_LTGcore_AA_RTGcore_CT] (site CGCGCCCCTCC) (LTG core: AA, RTG core: CT)
recombinant barcode read abundance (log10): 0.173

CGCGCCCCTTGGGTTCTAACCTGTTGCGGCT [CGCGCCCCTCC_LTGcore_CT_RTGcore_AG] (site CGCGCCCCTCC) (LTG core: CT, RTG core: AG)
recombinant barcode read abundance (log10): 0.0596

CGCGCCCCTTGGGTTCTAACCTGTTGCGGGA [CGCGCCCCTCC_LTGcore_CT_RTGcore_TC] (site CGCGCCCCTCC) (LTG core: CT, RTG core: TC)
recombinant barcode read abundance (log10): 0.0431

CGCGCCCCTTGGGTTCTAACCTGTTGCGGTG [CGCGCCCCTCC_LTGcore_CT_RTGcore_CA] (site CGCGCCCCTCC) (LTG core: CT, RTG core: CA)
recombinant barcode read abundance (log10): 0.382

CGCGCCCTATGGGTTCTAACCTGTTGCGGTA [CGCGCCCCTCC_LTGcore_TA_RTGcore_TA] (site CGCGCCCCTCC) (LTG core: TA, RTG core: TA)
recombinant barcode read abundance (log10): 0.0456

CGGTCCCAATGGGTTCTAACCTGTTGCCAAG [CGGTCCCCTTG_LTGcore_AA_RTGcore_CT] (site CGGTCCCCTTG) (LTG core: AA, RTG core: CT)
recombinant barcode read abundance (log10): 0.3

CGGTCCCAATGGGTTCTAACCTGTTGCCATT [CGGTCCCCTTG_LTGcore_AA_RTGcore_AA] (site CGGTCCCCTTG) (LTG core: AA, RTG core: AA)
recombinant barcode read abundance (log10): 0.0857

CGGTCCCACTGGGTTCTAACCTGTTGCCAAG [CGGTCCCCTTG_LTGcore_AC_RTGcore_CT] (site CGGTCCCCTTG) (LTG core: AC, RTG core: CT)
recombinant barcode read abundance (log10): 0.0364

CGGTCCCATTGGGTTCTAACCTGTTGCCAAT [CGGTCCCCTTG_LTGcore_AT_RTGcore_AT] (site CGGTCCCCTTG) (LTG core: AT, RTG core: AT)
recombinant barcode read abundance (log10): 0.494

CGGTCCCCATGGGTTCTAACCTGTTGCCAAG [CGGTCCCCTTG_LTGcore_CA_RTGcore_CT] (site CGGTCCCCTTG) (LTG core: CA, RTG core: CT)
recombinant barcode read abundance (log10): 0.51

CGGTCCCCCTGGGTTCTAACCTGTTGCCAGG [CGGTCCCCTTG_LTGcore_CC_RTGcore_CC] (site CGGTCCCCTTG) (LTG core: CC, RTG core: CC)
recombinant barcode read abundance (log10): 0.0887

CGGTCCCCGTGGGTTCTAACCTGTTGCCAAG [CGGTCCCCTTG_LTGcore_CG_RTGcore_CT] (site CGGTCCCCTTG) (LTG core: CG, RTG core: CT)
recombinant barcode read abundance (log10): 0.38

CGGTCCCCTTGGGTTCTAACCTGTTGCCAGA [CGGTCCCCTTG_LTGcore_CT_RTGcore_TC] (site CGGTCCCCTTG) (LTG core: CT, RTG core: TC)
recombinant barcode read abundance (log10): 0.0215

CGGTCCCCTTGGGTTCTAACCTGTTGCCAGG [CGGTCCCCTTG_LTGcore_CT_RTGcore_CC] (site CGGTCCCCTTG) (LTG core: CT, RTG core: CC)
recombinant barcode read abundance (log10): 0.129

CGGTCCCCTTGGGTTCTAACCTGTTGCCAGT [CGGTCCCCTTG_LTGcore_CT_RTGcore_AC] (site CGGTCCCCTTG) (LTG core: CT, RTG core: AC)
recombinant barcode read abundance (log10): 0.258

CGGTCCCGATGGGTTCTAACCTGTTGCCAAG [CGGTCCCCTTG_LTGcore_GA_RTGcore_CT] (site CGGTCCCCTTG) (LTG core: GA, RTG core: CT)
recombinant barcode read abundance (log10): 0.197

CGGTCCCGATGGGTTCTAACCTGTTGCCATC [CGGTCCCCTTG_LTGcore_GA_RTGcore_GA] (site CGGTCCCCTTG) (LTG core: GA, RTG core: GA)
recombinant barcode read abundance (log10): 0.3

CGGTCCCGGTGGGTTCTAACCTGTTGCCAAG [CGGTCCCCTTG_LTGcore_GG_RTGcore_CT] (site CGGTCCCCTTG) (LTG core: GG, RTG core: CT)
recombinant barcode read abundance (log10): 0.0912

CGGTCCCGTTGGGTTCTAACCTGTTGCCAAG [CGGTCCCCTTG_LTGcore_GT_RTGcore_CT] (site CGGTCCCCTTG) (LTG core: GT, RTG core: CT)
recombinant barcode read abundance (log10): 0.292

GAGCCCAAATGGGTTCTAACCTGTTGCCTTT [GAGCCCACTAG_LTGcore_AA_RTGcore_AA] (site GAGCCCACTAG) (LTG core: AA, RTG core: AA)
recombinant barcode read abundance (log10): 0.102

GAGCCCAACTGGGTTCTAACCTGTTGCCTAG [GAGCCCACTAG_LTGcore_AC_RTGcore_CT] (site GAGCCCACTAG) (LTG core: AC, RTG core: CT)
recombinant barcode read abundance (log10): 0.135
